Test results: ChEMBL document CHEMBL1201862, “PubChem BioAssay data set” (2004)
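Briefly, cells in 96-well plates were exposed to five compound concentrations for 48 h, and endpoints were estimated by linear interpolation. Abbreviation: GI50, concentration required for 50% inhibition of growth.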 Activity calls are given as the source filed them. No stated cut-off is given here; in the data, active = GI50 up to about 1.1 µM and inactive = higher.

Experiments:
Assay in all cases: NCI anticancer screen, dose series, 48 h
[1] = system: EKVX
[2] = system: HCT-15
[3] = system: HT-29
[4] = system: Hs-578T
[5] = system: LOX IMVI
[6] = system: MCF7
[7] = system: MDA-MB-435
[8] = system: OVCAR-5
[9] = system: OVCAR-8
[10] = system: PC-3
[11] = system: SK-MEL-2
[12] = system: SK-OV-3
[13] = system: SN12C
[14] = system: SW-620
[15] = system: T47D
[16] = system: K562
[17] = system: NCI-H226
[18] = system: SNB-75

SMILES | GI50 [1] | GI50 [2] [µM] | GI50 [3] | GI50 [4] | GI50 [5] | GI50 [6] | GI50 [7] | GI50 [8] | GI50 [9] | GI50 [10] | GI50 [11] | GI50 [12] | GI50 [13] | GI50 [14] | GI50 [15] | GI50 [16] | GI50 [17] | GI50 [18]
Fc1ccc(Nc2nnc(-c3ccccn3)s2)cc1 | > 100 µM (inactive) | > 100 | > 100 µM (inactive) | > 100 µM (inactive) | > 100 µM (inactive) | 3.47 µM (inactive) | > 100 µM (inactive) | > 100 µM (inactive) | > 100 µM (inactive) | > 100 µM (inactive) | > 100 µM (inactive) | > 100 µM (inactive) | > 100 µM (inactive) | > 100 µM (inactive) | 5.22 µM (inactive) |  |  | 
O=C1NC(Cc2ccc(O)cc2)C(=O)NC1Cc1ccc(O)cc1 (stereo not drawn) | > 100 µM (inactive) | > 100 | > 100 µM (inactive) | > 100 µM (inactive) | > 100 µM (inactive) | > 100 µM (inactive) | > 100 µM (inactive) | > 100 µM (inactive) | > 100 µM (inactive) | > 100 µM (inactive) | > 100 µM (inactive) | > 100 µM (inactive) | 27.1 µM (inactive) | > 100 µM (inactive) |  | > 100 µM (inactive) | > 100 µM (inactive) | 28.2 µM (inactive)
C#CCNC(=O)ON1C(=O)CCC1=O | > 100 µM (inactive) | > 100 | > 100 µM (inactive) |  | > 100 µM (inactive) |  |  | > 100 µM (inactive) | > 100 µM (inactive) |  | > 100 µM (inactive) | > 100 µM (inactive) | > 100 µM (inactive) | > 100 µM (inactive) |  | > 100 µM (inactive) |  | > 100 µM (inactive)
CCOC(=O)c1c(-c2ccc(OC)cc2)c(C#N)c(=S)n(C2OC(CO)C(O)C(O)C2O)c1-c1ccccc1 (stereo not drawn) |  | 56 | 40.6 µM (inactive) | 25.2 µM (inactive) | 41.9 µM (inactive) | 39.4 µM (inactive) | 30.8 µM (inactive) | > 100 µM (inactive) |  | 35.6 µM (inactive) | 31.3 µM (inactive) | 90.6 µM (inactive) | 42.7 µM (inactive) | 36.1 µM (inactive) | 52.2 µM (inactive) | 34.4 µM (inactive) |  | 78.7 µM (inactive)
Cc1cn(CC2=NCC(C)(C)N2)c(=O)[nH]c1=O | > 100 µM (inactive) | > 100 | > 100 µM (inactive) | > 100 µM (inactive) | > 100 µM (inactive) | > 100 µM (inactive) |  | > 100 µM (inactive) | > 100 µM (inactive) | > 100 µM (inactive) | > 100 µM (inactive) | > 100 µM (inactive) | > 100 µM (inactive) | > 100 µM (inactive) | > 100 µM (inactive) | > 100 µM (inactive) | > 100 µM (inactive) | > 100 µM (inactive)
CCOC(=O)Cc1cc(=O)oc2cc(O)ccc12 | > 100 µM (inactive) | > 100 | > 100 µM (inactive) | > 100 µM (inactive) | > 100 µM (inactive) |  | > 100 µM (inactive) | 59.4 µM (inactive) | > 100 µM (inactive) | > 100 µM (inactive) | > 100 µM (inactive) | > 100 µM (inactive) | > 100 µM (inactive) | > 100 µM (inactive) |  | > 100 µM (inactive) | > 100 µM (inactive) | > 100 µM (inactive)
COc1cc(/C=C2/SC(c3ccccc3)N(c3ccc(NC(C)=O)cc3)C2=O)cc(OC)c1OC (stereo not drawn) | > 100 µM (inactive) | > 100 | > 100 µM (inactive) | 35.5 µM (inactive) | 72.1 µM (inactive) | 76.9 µM (inactive) | 66.4 µM (inactive) | > 100 µM (inactive) | > 100 µM (inactive) |  | > 100 µM (inactive) | > 100 µM (inactive) | > 100 µM (inactive) | > 100 µM (inactive) | 84.3 µM (inactive) | 49.4 µM (inactive) | > 100 µM (inactive) | 
COC(CN(C(=O)c1ccccc1)C1CCC2(SCCS2)c2[nH]c3ccccc3c21)OC (stereo not drawn) | 19.6 µM (inactive) | 30.6 | 37.3 µM (inactive) | 75.2 µM (inactive) | 2.18 µM (inactive) | 32.1 µM (inactive) | 15.6 µM (inactive) | 33.7 µM (inactive) | 34.9 µM (inactive) | 18.2 µM (inactive) | 32.6 µM (inactive) |  | 24.2 µM (inactive) | 33.3 µM (inactive) |  | 14.9 µM (inactive) | 83.8 µM (inactive) | 20.2 µM (inactive)
COC(=O)[C@@H](OC(C)=O)[C@@H](OC(C)=O)c1nnc2ccc(Cl)nn12 | > 100 µM (inactive) | > 100 | > 100 µM (inactive) | > 100 µM (inactive) | > 100 µM (inactive) | > 100 µM (inactive) | > 100 µM (inactive) | > 100 µM (inactive) | > 100 µM (inactive) | > 100 µM (inactive) | > 100 µM (inactive) | > 100 µM (inactive) | > 100 µM (inactive) | > 100 µM (inactive) | > 100 µM (inactive) |  |  | 
COc1cccc(C=C2N=C(C)N(n3c(-c4ccccc4)nc4ccccc4c3=O)C2=O)c1 | > 100 µM (inactive) | 77.1 | > 100 µM (inactive) | > 100 µM (inactive) | > 100 µM (inactive) | 83.4 µM (inactive) | > 100 µM (inactive) |  | > 100 µM (inactive) | > 100 µM (inactive) |  | > 100 µM (inactive) | > 100 µM (inactive) | > 100 µM (inactive) | > 100 µM (inactive) | > 100 µM (inactive) | > 100 µM (inactive) | 56.1 µM (inactive)
COc1cc2c(c(OC)c1)/C(=C/Sc1ccccc1)C(=O)N(C(C)(C)C)C2 | 29.6 µM (inactive) | 30.3 | 22.9 µM (inactive) |  | 18.8 µM (inactive) | 29.8 µM (inactive) | 22.2 µM (inactive) | 52.6 µM (inactive) | 25.6 µM (inactive) | 22.4 µM (inactive) | 20.2 µM (inactive) | 14.2 µM (inactive) | 24 µM (inactive) | 38 µM (inactive) | 26.7 µM (inactive) | 37.8 µM (inactive) | 51.6 µM (inactive) | 
CNC(=O)c1nnn(Cc2ccccc2)c1S | > 100 µM (inactive) | > 100 | > 100 µM (inactive) |  |  | > 100 µM (inactive) | > 100 µM (inactive) | > 100 µM (inactive) | > 100 µM (inactive) | > 100 µM (inactive) | > 100 µM (inactive) | > 100 µM (inactive) | > 100 µM (inactive) | > 100 µM (inactive) | > 100 µM (inactive) | > 100 µM (inactive) | > 100 µM (inactive) | > 100 µM (inactive)
CCc1nnc(CC)n1-n1c(Cc2ccccc2)n[nH]c1=O | > 100 µM (inactive) | > 100 | > 100 µM (inactive) |  | > 100 µM (inactive) | > 100 µM (inactive) | > 100 µM (inactive) | > 100 µM (inactive) | > 100 µM (inactive) | > 100 µM (inactive) | > 100 µM (inactive) | > 100 µM (inactive) | > 100 µM (inactive) | > 100 µM (inactive) |  | > 100 µM (inactive) |  | > 100 µM (inactive)
COC(=O)C1(O)C(c2ccccc2)=NC2(C)CCCC21 (stereo not drawn) |  | > 100 | > 100 µM (inactive) | > 100 µM (inactive) | > 100 µM (inactive) |  | > 100 µM (inactive) | > 100 µM (inactive) | > 100 µM (inactive) | > 100 µM (inactive) | > 100 µM (inactive) | > 100 µM (inactive) | > 100 µM (inactive) | > 100 µM (inactive) | > 100 µM (inactive) | > 100 µM (inactive) | > 100 µM (inactive) | > 100 µM (inactive)
COC(=O)C(=O)C(C(=O)C(=O)Nc1ccc(C)cc1)c1nc2ccc(C(=O)c3ccccc3)cc2nc1O (stereo not drawn) | > 100 µM (inactive) | 52.2 | 7.83 µM (inactive) | 57.3 µM (inactive) | > 100 µM (inactive) |  | 47.3 µM (inactive) | > 100 µM (inactive) | 42.2 µM (inactive) | 43.7 µM (inactive) | > 100 µM (inactive) | > 100 µM (inactive) | > 100 µM (inactive) | > 100 µM (inactive) | 79.4 µM (inactive) | 42.2 µM (inactive) | 95.5 µM (inactive) | 22.3 µM (inactive)
COc1ccc(C23OCC(Cc4cc(OC)c(OC)cc42)C3CO)cc1OC (stereo not drawn) | > 100 µM (inactive) | > 100 |  |  | > 100 µM (inactive) | > 100 µM (inactive) | > 100 µM (inactive) | > 100 µM (inactive) |  | > 100 µM (inactive) | > 100 µM (inactive) | > 100 µM (inactive) |  | > 100 µM (inactive) | > 100 µM (inactive) | > 100 µM (inactive) | > 100 µM (inactive) | > 100 µM (inactive)
C(=N\c1ccc(-c2nc3ccccc3[nH]2)cc1)/c1ccc[nH]1 | > 100 µM (inactive) | 76.6 | 78.5 µM (inactive) | 4.3 µM (inactive) | 76.6 µM (inactive) | 25.7 µM (inactive) | 41.8 µM (inactive) | > 100 µM (inactive) | 83.9 µM (inactive) | 70.8 µM (inactive) | > 100 µM (inactive) |  | 63.2 µM (inactive) | 73.3 µM (inactive) | 40.3 µM (inactive) | 41.3 µM (inactive) |  | > 100 µM (inactive)
COc1ccc(C2[C@H]3C(=O)N(c4ccc(Cc5ccc(N6C(=O)[C@@H]7ON(c8ccccc8)C(c8ccc(OC)cc8)[C@@H]7C6=O)cc5)cc4)C(=O)[C@H]3ON2c2ccccc2)cc1 (stereo partly drawn) | > 100 µM (inactive) | > 100 | > 100 µM (inactive) |  | > 100 µM (inactive) |  |  | > 100 µM (inactive) | > 100 µM (inactive) |  | > 100 µM (inactive) | > 100 µM (inactive) | > 100 µM (inactive) | > 100 µM (inactive) |  | > 100 µM (inactive) | > 100 µM (inactive) | > 100 µM (inactive)
